Source: patent US20240343747A1, “Heteroaryl compounds as inhibitors of TYK2, composition and application thereof” (Accro Bioscience (HK) Limited, priority 2021, published 2024)

What was measured:
hERG channel = hERG channel (Homo sapiens (Human), UniProt Q12809); test: in vitro; details: human
Experimental: Chinese hamster ovary (CHO) cell line, CHO-hERG cells were used in this study. CHO-hERG cells were derived from Sophion Biosciences Inc. (Ballerup, Denmark) in Suzhou, China. The cell reserve fluid is frozen in liquid nitrogen tanks. Each batch of stored cell fluid is tested for mycoplasma contamination. The cells were no longer used after 30 generations.
The whole cell patch clamp technique was used to record hERG current at room temperature. The patch-clamp amplifier outputs signals through […] conversion and 2.9 KHz low-pass filtering. Data records were collected by Patchmaster Pro software.
Cells were planted in a cell recording tank and placed on an inverted microscope platform. One cell in the recording tank was randomly selected for experiment. The perfusion system was fixed on an inverted microscope platform and cells were continuously irrigated with ECS.
Manual patch clamp recording microelectrode was prepared with capillary glass tube, which was filled with intracellular fluid. On the day of the patch clamp test, the electrodes were prepared using a borosilicate glass tube (GC150TF-10, Harvard Apparatus Co. UK). The resistance is between 2-5 MΩ after the electrode is filled with ICS.
The clamping voltage was −80 mV, and the first step was depolarized to +60 mV for 850 ms to open the hERG channel. The voltage is then set to −50 mV and maintained for 1275 ms, resulting in a rebound current or tail current, the peak of which is measured and used for analysis. Finally, the voltage is restored to the clamping voltage (−80 mV). During the test, the command voltage program was repeated every 15 s.
At the beginning of recording the perfusion of the solvent control working solution, the test substance/positive control working solution to be tested can be poured after monitoring the tail current peak until more than 3 scanning curves are stable, until the inhibition of the test substance/positive control working solution to the hERG current peak reaches a stable state. Generally, the most recent three consecutive peak values of the current curve basically coincide as a criterion to judge whether the state is stable. After reaching a stable state, continue to pour one concentration of the test sample. One or more test subjects/positive controls, or multiple concentrations of the same drug, can be tested on a cell, and the different test subjects/positive controls need to be rinsed with a solvent control working fluid until the hERG current returns to more than 80% of its pre-drug level.
The concentration of positive control cisapride was 0.1 μM, and two cells were repeated.

TYK2 JH2 = TYK2 JH2 (Homo sapiens (Human), UniProt P29597); test: Competitive binding assay (kinase-tagged phage, qPCR), TYK2 JH2
Experimental: (§1) For most assays, kinase-tagged T7 phage strains were prepared in an E. coli host derived from the BL21 strain. E. coli were grown to log-phase and infected with T7 phage and incubated with shaking at 32° C. until lysis. The lysates were centrifuged and filtered to remove cell debris. The remaining kinases were produced in HEK-293 cells and subsequently tagged with DNA for qPCR detection. Streptavidin coated magnetic beads were treated with biotinylated small molecule ligands for 30 minutes at room temperature to generate affinity resins for kinase assays. The liganded beads were blocked with excess biotin and washed with blocking buffer (SeaBlock (Pierce), 1% BSA, 0.05% Tween 20, 1 mM DTT) to remove unbound ligand and to reduce non-specific binding. […] Test compounds were prepared as 111X stocks in 100% DMSO. Dissociation constants (Kds) were determined using an 11-point 3-fold compound dilution series with three DMSO control points. All compounds for Kd measurements are distributed by acoustic transfer (non-contact dispensing) in 100% DMSO. The compounds were then diluted directly into the assays such that the final concentration of DMSO was 0.9%. All reactions performed in polypropylene 384-well plate. Each was a final volume of 0.02 ml. The assay plates were incubated at room temperature with shaking for 1 hour and the affinity beads were washed with wash buffer (1×PBS, 0.05% Tween 20). The beads were then re-suspended in elution buffer (1×PBS, 0.05% Tween 20, 0.5 μM nonbiotinylated affinity ligand) and incubated at room temperature with shaking for 30 minutes. The kinase concentration in the eluates was measured by qPCR.
(§2) An 11-point 3-fold serial dilution of each test compound was prepared in 100% DMSO at 100× final test concentration and subsequently diluted to 1× in the assay (final DMSO concentration=1%). Most Kds were determined using a compound top concentration=30,000 nM. If the initial Kd determined was <0.5 nM (the lowest concentration tested), the measurement was repeated with a serial dilution starting at a lower top concentration.
(§3) Binding constants (Kds) were calculated with a standard dose-response curve using the Hill equation: […]
(§4) The Hill Slope was set to −1.
(§5) Curves were fitted using a non-linear least square fit with the Levenberg-Marquardt algorithm.

JAK1 JH1 = JAK1 JH1 (Homo sapiens (Human), UniProt P23458); test: Competitive binding assay (kinase-tagged phage, qPCR), JAK1 JH1
Experimental: as §1, §2, §3, §4, §5

TYK2 = TYK2 (Mus musculus (Mouse), UniProt Q9R117); test: Luciferase assay in L929 ISRE cells stimulated with IFN-α; assay type: cell-based; details: IFN-α 100 ng/mL; for inhibition at 1 µM: read-out: Inhibitory activity % (1000 nM)
Experimental: • 1. L929 ISRE cells (5000 cells/well) were seeded on 96-well plates and incubated overnight at room temperature; • 2. The cells were pretreated by adding different concentrations (10 nM, 50 nM, 100 nM, 200 nM or 1000 nM) of the test compounds for 2 hours; • 3. Added IFN-α (100 ng/mL) to stimulate cells for 6 hours; • 4. Removed the upper medium, add PBS (100 μL) and washed, then removed PBS; • 5. Added PLB lysis solution (50 μL) to each well, shook the well for 15 minutes; • 6. Transferred PLB lysis solution (30 μL) to a new 96-well whiteboard, added LAR II reagent (LAR II), then quickly read the […]; • 7. Added Stop & Glo reagent (30 μL), then read the 450 nm OD value using the plate washer. • 8. The final results in Table 3 were the OD value in step 6/OD value in step 7.

TYK2/JAK1 pathway = test: Selectivity: TYK2/JAK1 pathway, IFN-α-induced p-STAT1 in human PBMC, western blot; assay type: cell-based; details: IFN-α 100 ng/mL, western blot
Experimental: Commercial human PBMC (peripheral blood mononuclear cells) were centrifuged (400 g) for 10 min, counted and planted on 6-well plates (5 million/well). Then, the compounds to be tested were added for 2 hours and IFN-α (100 ng/mL) was added to stimulate cells for 15 minutes. Protein lysate was used to lysate cells, and BCA kit was used for protein quantification. Finally, p-STAT1/STAT1, P-TYK2/TYK2 and internal reference protein B-Actin were detected by Western blot.

JAK2 JH1 = JAK2 JH1 (Homo sapiens (Human), UniProt O60674); test: Competitive binding assay (kinase-tagged phage, qPCR), JAK2 JH1
Experimental: For most assays, kinase-tagged T7 phage strains were prepared in an E. coli host derived from the BL21 strain. E. coli were grown to log-phase and infected with T7 phage and incubated with shaking at 32° C. until lysis. The lysates were centrifuged and filtered to remove cell debris. The remaining kinases were produced in HEK-293 cells and subsequently tagged with DNA for qPCR detection. Streptavidin coated magnetic beads were treated with biotinylated small molecule ligands for 30 minutes at room temperature to generate affinity resins for kinase assays. The liganded beads were blocked with excess biotin and washed with blocking buffer (SeaBlock (Pierce), 1% BSA, 0.05% Tween 20, 1 mM DTT) to remove unbound ligand and to reduce non-specific binding. […] Test compounds were prepared as 111X stocks in 100% DMSO. Dissociation constants (Kds) were determined using an 11-point 3-fold compound dilution series with three DMSO control points. […] The kinase concentration in the eluates was measured by qPCR.
An 11-point 3-fold serial dilution of each test compound was prepared in 100% DMSO at 100× final test concentration and subsequently diluted to 1× in the assay (final DMSO concentration=1%). Most Kds were determined using a compound top concentration=30,000 nM. […]
as §3

[1] = system: production of CXCL-10 stimulated by IFNα in PBMC; test: ELISA: production of CXCL-10 stimulated by IFNα in PBMC; assay type: cell-based; details: CXCL-10 production stimulated by IFNα in PBMC, ELISA
Experimental: • 1. Soak plate: Add 300 μL 1×washing solution and let stand for 30 seconds. After discarding the washing solution, dry the microporous plate on absorbent paper. • 2. Add standard: Add 100 μL of 2-fold standard to standard well. Add 100 μL standard dilution (serum/plasma sample) or culture medium (cell culture supernatant sample) to blank well. • 3. Add sample: Serum/plasma: Add 50 μL 1×assay buffer and 50 μL sample to sample well. Cell culture supernatant: Add 100 μL cell culture supernatant to sample well. • 4. Add detection antibody: Add 50 μL diluted detection antibody (1:100 diluted) to each well. Make sure steps 4, 5 and 6 are added continuously without interruption. The sampling process was completed within 15 minutes. • 5. Incubation: Use sealing plate film to seal the plate. shake at 300 rpm and incubate for 2 hours at room temperature. • 6. Washing: Discard the liquid, add 300 μL of washing solution and wash the plate 6 times. pat dry on blotting paper after each wash. To obtain the desired experimental performance, the residual liquid must be completely removed. • 7. Enzyme addition: Add 100 μL diluted horseradish peroxidase labeled streptavidin to each well (1:100 diluted). • 8. Incubation: Seal the plate with a new sealing film. shake at 300 rpm and incubate at room temperature for 45 minutes. • 9. Washing. Repeat step […]. • 10. Add substrate for color development: Add 100 μL of color development substrate TMB to each well, keep away from light, and incubate at room temperature for 5-30 minutes. • 11. Add Stop Solution: Add 100 μL stop solution to each well. The color changed from blue to yellow. If the color appears green or the color changes unevenly, gently tap the frame of the plate to mix well. • 12. Assay readout: Within 30 minutes, perform dual wavelength detection using a microplate reader to measure the OD at the absorption maximum at 450 nm and reference wavelengths at 570 nm or 630 nm. The calibrated OD value is the measured value at 450 nm minus the measured value at 570 nm or 630 nm.

JAK2/JAK2 pathway = test: Selectivity: JAK2/JAK2 pathway, TPO-induced p-STAT3 in MEG-1 cells, western blot; assay type: cell-based; details: TPO 100 ng/mL
Experimental: MEG-1 cells were digested by trypsin, re-suspended in 1640 medium and counted. The compounds to be measured were added to 6 well plates (1 million/per well) for 2 hours, and then TPO (final concentration: 100 ng/mL) was added to stimulate cells for 30 minutes. The cells were collected and lysed with protein lysate. The protein was quantitatively tested by BCA kit. Finally, p-STAT3/STAT3 and internal reference protein β-actin were detected by western blot.

JAK1/JAK2 pathway = test: Selectivity: JAK1/JAK2 pathway, IFN-γ-induced p-STAT1 in HT-29 cells, western blot; assay type: cell-based; details: IFN-γ 100 ng/mL
Experimental: HT-29 cells were digested by trypsin and suspended in DMEM medium and counted. The tested compounds were added into 6 well plates (400 000/per well) for 2 hours, then IFN-γ (100 ng/mL) was added to stimulate cells for 30 minutes. The cells were collected and lysed with protein lysate. The protein was quantitatively tested by BCA kit. Finally, p-STAT1/STAT1 and internal reference protein β-actin were detected by western blot.

JAK1/JAK3 pathway = test: Selectivity: JAK1/JAK3 pathway, IL-2-induced p-STAT5 in human PBMC, western blot; assay type: cell-based; details: IL-2 100 ng/mL
Experimental: Commercial human PBMC (peripheral blood mononuclear cells) were centrifuged (400 g) for 10 min, counted and seeded into 6-well plates (5 million/well). The compounds to be tested were added for 2 hours and then IL-2 (100 ng/mL) was added to stimulate cells for 15 minutes. Finally, p-STAT5/STAT5 and internal reference protein β-actin were detected by Western blot.

IL-23 induced psoriasis = IL-23 induced psoriasis in mice (ear thickness); assay type: in vivo; details: oral gavage twice a day, 14 days, B41 10 and 30 mg/kg, BMS986165 10 mg/kg
Experimental: Recombinant human IL-23 (100 ng/time/mouse) was injected into the right ear of mice every two days starting from day 1 of the study. The administration group included 7 mice, with EtOH:TPGS:PEG300=[…] as vehicle, compound B41 (10 mg/kg, 30 mg/kg) or BMS986165 (10 mg/kg) orally gavage twice a day the night before the first injection of IL-23. The control group was injected with vehicle alone. The experiment lasted for 14 days. The thickness of the ear was measured with a micrometer every two days.

Chain of TYK2 JH2 (P29597 589-875): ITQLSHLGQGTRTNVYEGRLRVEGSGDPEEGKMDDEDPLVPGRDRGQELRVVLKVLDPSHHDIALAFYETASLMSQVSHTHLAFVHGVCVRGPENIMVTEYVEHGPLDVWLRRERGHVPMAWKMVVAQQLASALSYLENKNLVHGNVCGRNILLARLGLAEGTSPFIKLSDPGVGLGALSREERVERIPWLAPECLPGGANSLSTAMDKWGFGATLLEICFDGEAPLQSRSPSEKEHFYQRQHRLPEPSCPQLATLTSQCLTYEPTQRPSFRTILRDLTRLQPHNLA
Chain of JAK1 JH1 (P23458 875-1153): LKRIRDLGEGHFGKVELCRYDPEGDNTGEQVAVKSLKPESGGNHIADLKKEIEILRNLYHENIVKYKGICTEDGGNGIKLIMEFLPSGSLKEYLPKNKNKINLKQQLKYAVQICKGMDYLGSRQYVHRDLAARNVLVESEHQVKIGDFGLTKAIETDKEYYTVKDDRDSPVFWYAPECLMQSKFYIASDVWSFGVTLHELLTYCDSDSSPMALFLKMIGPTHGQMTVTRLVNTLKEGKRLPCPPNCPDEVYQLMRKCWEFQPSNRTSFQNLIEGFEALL
Chain of TYK2 (Q9R117 whole entry): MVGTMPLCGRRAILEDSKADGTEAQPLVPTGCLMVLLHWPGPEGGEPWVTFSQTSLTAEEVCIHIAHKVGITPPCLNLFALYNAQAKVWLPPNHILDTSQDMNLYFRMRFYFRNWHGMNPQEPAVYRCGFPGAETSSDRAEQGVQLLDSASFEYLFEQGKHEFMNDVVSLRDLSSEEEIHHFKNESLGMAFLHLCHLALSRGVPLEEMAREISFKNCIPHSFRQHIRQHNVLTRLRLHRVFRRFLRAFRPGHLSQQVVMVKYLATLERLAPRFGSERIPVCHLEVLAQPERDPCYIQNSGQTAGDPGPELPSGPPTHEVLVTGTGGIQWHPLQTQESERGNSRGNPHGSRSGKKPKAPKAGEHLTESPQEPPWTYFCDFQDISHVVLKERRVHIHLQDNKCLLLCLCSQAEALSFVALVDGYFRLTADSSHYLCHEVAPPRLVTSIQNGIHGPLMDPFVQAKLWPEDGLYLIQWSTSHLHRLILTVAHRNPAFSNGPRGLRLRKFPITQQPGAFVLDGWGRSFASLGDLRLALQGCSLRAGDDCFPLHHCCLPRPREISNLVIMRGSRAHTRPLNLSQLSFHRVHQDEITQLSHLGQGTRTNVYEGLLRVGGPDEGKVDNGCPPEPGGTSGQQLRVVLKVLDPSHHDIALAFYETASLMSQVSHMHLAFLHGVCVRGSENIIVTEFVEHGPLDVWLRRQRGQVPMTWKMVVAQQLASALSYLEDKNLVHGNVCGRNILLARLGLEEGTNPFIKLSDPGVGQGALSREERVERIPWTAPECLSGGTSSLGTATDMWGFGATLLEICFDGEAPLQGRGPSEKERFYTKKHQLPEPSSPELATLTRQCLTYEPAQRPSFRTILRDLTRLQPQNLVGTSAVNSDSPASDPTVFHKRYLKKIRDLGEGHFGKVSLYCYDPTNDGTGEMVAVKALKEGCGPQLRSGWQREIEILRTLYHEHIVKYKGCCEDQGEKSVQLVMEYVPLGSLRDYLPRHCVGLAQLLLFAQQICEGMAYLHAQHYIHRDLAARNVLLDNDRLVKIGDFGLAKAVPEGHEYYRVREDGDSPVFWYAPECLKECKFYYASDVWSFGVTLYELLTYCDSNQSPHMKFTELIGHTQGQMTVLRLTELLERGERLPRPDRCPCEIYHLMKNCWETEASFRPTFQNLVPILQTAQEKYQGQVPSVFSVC
Chain of hERG channel (Q12809 whole entry): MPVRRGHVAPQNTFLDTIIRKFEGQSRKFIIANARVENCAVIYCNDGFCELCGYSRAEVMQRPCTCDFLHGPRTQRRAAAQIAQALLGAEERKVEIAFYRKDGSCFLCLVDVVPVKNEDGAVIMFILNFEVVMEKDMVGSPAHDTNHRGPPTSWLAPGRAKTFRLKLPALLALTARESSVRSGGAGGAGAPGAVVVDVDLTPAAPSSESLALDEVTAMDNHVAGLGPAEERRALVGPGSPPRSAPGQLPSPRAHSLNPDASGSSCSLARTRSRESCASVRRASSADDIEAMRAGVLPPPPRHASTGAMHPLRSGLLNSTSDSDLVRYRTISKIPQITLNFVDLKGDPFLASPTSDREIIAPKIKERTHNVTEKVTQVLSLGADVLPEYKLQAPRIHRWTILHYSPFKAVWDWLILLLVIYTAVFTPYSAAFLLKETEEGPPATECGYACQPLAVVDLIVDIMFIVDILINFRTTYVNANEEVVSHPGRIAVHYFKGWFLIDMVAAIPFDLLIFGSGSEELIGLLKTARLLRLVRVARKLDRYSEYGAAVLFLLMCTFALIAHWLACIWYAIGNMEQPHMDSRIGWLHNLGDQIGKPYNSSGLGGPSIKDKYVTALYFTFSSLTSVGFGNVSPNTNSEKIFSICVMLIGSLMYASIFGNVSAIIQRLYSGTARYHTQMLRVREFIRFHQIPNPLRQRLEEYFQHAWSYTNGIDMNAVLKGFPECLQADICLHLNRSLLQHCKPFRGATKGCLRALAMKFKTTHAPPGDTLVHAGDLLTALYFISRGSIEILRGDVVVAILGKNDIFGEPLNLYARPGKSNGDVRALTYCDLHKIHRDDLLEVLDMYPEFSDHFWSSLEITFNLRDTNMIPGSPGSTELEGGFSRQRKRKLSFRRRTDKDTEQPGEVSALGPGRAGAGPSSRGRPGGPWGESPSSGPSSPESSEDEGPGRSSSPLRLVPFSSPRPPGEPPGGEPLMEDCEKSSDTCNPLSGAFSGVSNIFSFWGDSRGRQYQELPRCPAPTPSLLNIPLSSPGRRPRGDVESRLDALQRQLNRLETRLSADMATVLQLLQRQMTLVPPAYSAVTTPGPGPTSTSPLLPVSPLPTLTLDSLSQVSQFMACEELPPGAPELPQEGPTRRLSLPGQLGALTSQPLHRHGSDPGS
Chain of JAK2 JH1 (O60674 849-1124): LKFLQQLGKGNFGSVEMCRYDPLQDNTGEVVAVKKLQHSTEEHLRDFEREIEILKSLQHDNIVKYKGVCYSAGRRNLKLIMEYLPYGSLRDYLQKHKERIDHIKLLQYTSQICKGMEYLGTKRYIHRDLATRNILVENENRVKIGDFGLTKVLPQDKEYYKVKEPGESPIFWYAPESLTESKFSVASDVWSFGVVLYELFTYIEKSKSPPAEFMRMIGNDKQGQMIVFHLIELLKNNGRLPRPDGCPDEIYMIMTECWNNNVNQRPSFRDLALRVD

Kd (TYK2 JH2) [nM] | Kd (JAK1 JH1) [nM] | inhibition at 1 µM (TYK2; 1000 nM) [%] | Compound | further results
0.4 | > 30000 | 88 | CCC(=O)c1cnc(NC(=O)C2CC2)cc1Nc1cccc(-c2ccc(P(C)(C)=O)cc2)c1OC [Compound B3] | inhibition at 0.01 µM (TYK2; 10 nM, read-out: Inhibitory activity % (10 nM)): 21%; inhibition at 0.1 µM (TYK2; 100 nM, read-out: Inhibitory activity % (100 nM)): 46%
0.032 | > 30000 | 58 | CCC(=O)c1cnc(NC(=O)C2CC2)cc1Nc1cccc(-c2ccc(P(C)(C)=O)cn2)c1OC [Compound B4] | 
0.095 | > 30000 | 80 | CCC(=O)c1cnc(NC(=O)C2CC2)cc1Nc1cccc(-c2cnc(P(C)(C)=O)cn2)c1OC [Compound B5] | 
0.016 | > 30000 | 62 | CCC(=O)c1cnc(NC(=O)C2CC2)cc1Nc1cccc(-c2ncc(P(C)(C)=O)cn2)c1OC [Compound B11] | 
0.0079 | > 30000 | 95 | CCC(=O)c1cnc(NC(=O)C2CC2)cc1Nc1nccc(-c2cc(P(=O)(C3CC3)C3CC3)n(C)n2)c1OC [Compound B38] | inhibition of downstream STAT1 phosphorylation induced by IFN-α (TYK2/JAK1 pathway): effectively inhibit; Kd (JAK2 JH1): 11000 nM; IC50 [1]: 222 nM

The remaining lines, values behind:

Compound | Kd (TYK2 JH2) [nM] | Kd (JAK1 JH1) [nM] | inhibition at 1 µM (TYK2; 1000 nM) [%] | further results
COc1cc(N)c(Cl)cc1C(=O)NC1CCN(CCCOc2ccc(F)cc2)CC1OC (stereo not drawn) [Cisapride, reference compound] |  |  |  | inhibition at 0.1 µM (hERG channel): > 50%
N#CC[C@H](C1CCCC1)n1cc(-c2ncnc3[nH]ccc23)cn1 [Ruxolitinib, reference compound] |  |  |  | effect on TPO-induced downstream STAT3 phosphorylation (JAK2/JAK2 pathway): could inhibit JAK2/JAK2 pathway
BMS986165 [reference compound] |  |  |  | effect on downstream STAT1 phosphorylation induced by IFN-γ (JAK1/JAK2 pathway): no effect; effect on TPO-induced downstream STAT3 phosphorylation (JAK2/JAK2 pathway): no effect; effect on IL-2-induced downstream STAT5 phosphorylation (JAK1/JAK3 pathway): no effect; IC50 [1]: 56.8 nM; efficacy in IL-23 induced psoriasis (ear thickness) (IL-23 induced psoriasis): effectively inhibit and treat; Inhibitory activity % (50 nM) (TYK2; 50 nM): 74%; Inhibitory activity % (200 nM) (TYK2; 200 nM): 89%; Inhibitory activity % (1000 nM) (TYK2; 1000 nM): 96%
